Laboratory results from patent US10577368B2 (The United States of America, as represented by the …, priority 2013, dated 2020).

Legend:
hA1AR = hA1AR (Homo sapiens (Human), UniProt P30542); test: Radioligand binding at hA1AR, CHO cell membranes, [3H]R-PIA; details: for inhibition at 10 µM: read-out: hA1AR % inhibition; for hA1AR % inhibition: inhibition of binding at 10 μM
hA2AAR = hA2AAR (Homo sapiens (Human), UniProt P29274); test: Radioligand binding at hA2AAR, HEK293 cell membranes, [3H]CGS21680; details: for inhibition at 10 µM: read-out: hA2AAR % inhibition; for hA2AAR % inhibition: inhibition of binding at 10 μM
Sequence of hA2AAR (P29274 whole entry): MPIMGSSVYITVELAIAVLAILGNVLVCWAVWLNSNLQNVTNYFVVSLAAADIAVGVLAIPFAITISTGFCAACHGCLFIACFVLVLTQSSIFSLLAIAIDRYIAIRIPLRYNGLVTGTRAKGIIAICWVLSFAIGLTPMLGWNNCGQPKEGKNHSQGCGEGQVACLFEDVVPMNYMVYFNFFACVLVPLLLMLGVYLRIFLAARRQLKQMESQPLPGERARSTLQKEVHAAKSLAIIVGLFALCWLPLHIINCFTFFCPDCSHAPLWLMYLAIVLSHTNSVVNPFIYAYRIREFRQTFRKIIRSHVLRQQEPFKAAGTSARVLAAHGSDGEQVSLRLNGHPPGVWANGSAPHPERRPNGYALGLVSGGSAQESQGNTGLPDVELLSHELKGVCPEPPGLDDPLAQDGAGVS

mA3AR = mA3AR (Mus musculus (Mouse), UniProt Q61618); test: Competition binding at mA3AR, HEK293 cell membranes
Sequence of mA3AR (Q61618 whole entry): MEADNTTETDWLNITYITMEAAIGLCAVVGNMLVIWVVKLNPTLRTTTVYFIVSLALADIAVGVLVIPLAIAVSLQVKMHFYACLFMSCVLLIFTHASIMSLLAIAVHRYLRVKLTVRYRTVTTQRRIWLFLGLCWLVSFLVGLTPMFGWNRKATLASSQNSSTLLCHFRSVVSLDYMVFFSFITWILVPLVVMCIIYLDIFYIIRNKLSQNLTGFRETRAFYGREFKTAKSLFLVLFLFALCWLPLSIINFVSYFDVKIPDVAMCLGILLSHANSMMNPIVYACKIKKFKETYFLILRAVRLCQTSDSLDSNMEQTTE

[1] = test system: chronic constriction injury model of neuropathic pain; test: CCI model of neuropathic pain, reversal of mechano-allodynia; assay type: in vivo, mice; details: for Max. effect Emax (% ± SEM) / Time of peak protection / Effect at 3 h (% ± SEM): 3 μmol/kg p.o., mice; for Max. effect Emax (% ± SEM) / Time of peak protection: ipsilateral hind paw; for Efficacy in reversing NP in vivo (of full reversal at peak effect): CCI model
hA3AR = hA3AR (Homo sapiens (Human), UniProt P0DMS8); test: Radioligand binding at hA3AR, CHO cell membranes, [125I]I-AB-MECA
Sequence of hA3AR (P0DMS8 whole entry): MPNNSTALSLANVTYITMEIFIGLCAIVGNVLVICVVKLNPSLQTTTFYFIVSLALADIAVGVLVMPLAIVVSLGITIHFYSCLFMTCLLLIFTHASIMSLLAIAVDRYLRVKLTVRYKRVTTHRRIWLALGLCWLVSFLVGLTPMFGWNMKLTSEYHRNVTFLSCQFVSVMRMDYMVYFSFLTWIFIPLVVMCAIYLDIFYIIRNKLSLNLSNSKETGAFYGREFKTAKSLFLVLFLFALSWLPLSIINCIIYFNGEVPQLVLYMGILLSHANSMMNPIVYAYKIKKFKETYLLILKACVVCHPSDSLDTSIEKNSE

human DAT = human DAT (Homo sapiens (Human), UniProt Q01959); test: Radioligand ([3H]WIN35428) binding at the dopamine transporter; details: 10 μM
Sequence of human DAT (Q01959 whole entry): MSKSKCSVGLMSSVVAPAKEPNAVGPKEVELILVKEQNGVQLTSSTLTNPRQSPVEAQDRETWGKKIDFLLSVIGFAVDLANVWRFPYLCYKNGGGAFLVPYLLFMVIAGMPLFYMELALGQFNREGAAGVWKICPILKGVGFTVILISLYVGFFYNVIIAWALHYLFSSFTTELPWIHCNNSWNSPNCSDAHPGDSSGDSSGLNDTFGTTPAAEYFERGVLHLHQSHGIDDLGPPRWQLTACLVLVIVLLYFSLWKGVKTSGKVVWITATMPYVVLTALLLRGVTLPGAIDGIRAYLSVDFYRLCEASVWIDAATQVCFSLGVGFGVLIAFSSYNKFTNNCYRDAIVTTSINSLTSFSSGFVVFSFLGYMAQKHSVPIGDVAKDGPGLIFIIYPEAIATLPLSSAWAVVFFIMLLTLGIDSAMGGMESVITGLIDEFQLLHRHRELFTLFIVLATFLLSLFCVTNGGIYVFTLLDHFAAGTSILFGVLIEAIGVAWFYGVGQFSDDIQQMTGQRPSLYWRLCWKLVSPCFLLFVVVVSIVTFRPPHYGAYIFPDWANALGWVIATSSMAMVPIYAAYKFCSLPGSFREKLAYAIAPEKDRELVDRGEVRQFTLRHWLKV

Sequence of hA1AR (P30542 whole entry): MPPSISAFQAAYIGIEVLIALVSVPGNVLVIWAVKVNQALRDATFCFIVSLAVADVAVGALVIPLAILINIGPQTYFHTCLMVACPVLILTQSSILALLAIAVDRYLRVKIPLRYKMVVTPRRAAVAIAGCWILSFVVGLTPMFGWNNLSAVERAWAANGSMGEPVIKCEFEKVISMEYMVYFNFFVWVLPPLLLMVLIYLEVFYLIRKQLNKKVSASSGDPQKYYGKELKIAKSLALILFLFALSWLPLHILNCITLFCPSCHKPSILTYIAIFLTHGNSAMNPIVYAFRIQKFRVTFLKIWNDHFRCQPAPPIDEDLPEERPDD

Compound | inhibition at 10 µM (hA1AR) [%] | inhibition at 10 µM (hA2AAR) [%] | Ki (mA3AR) [nM] | Ki (hA3AR) [nM] | hA2AAR % inhibition (hA2AAR) [%] | Max. effect Emax (% ± SEM) [1] [%] | Time of peak protection [1] [h] | Efficacy in reversing NP in vivo (of full reversal at peak effect) [1] | hA1AR % inhibition (hA1AR) [%] | Effect at 3 h (% ± SEM) [1] [%] | Increase of the level of radioligand ([3H]WIN35428) binding at the human DAT (human DAT) [%] | Ki (hA2AAR) [nM]
CNC(=O)[C@@]12C[C@@H]1[C@@H](n1cnc3c(NC)nc(C#Cc4cc[nH]n4)nc31)[C@H](O)[C@@H]2O [Compound 9, (1S,2R,3S,4R,5S)-4-(2-((1H-Pyrazol-3-yl)ethynyl)-6-(methylamino)-9H-purin-9-yl)-2,3-dihydroxy-N-methylbicyclo[3.1.0]hexane-1-carboxamide] | 30 | 19 ± 2 | 50 ± 2 |  |  |  | 0.5 to 1 |  |  |  |  | 
CNC(=O)[C@@]12C[C@@H]1[C@@H](n1cnc3c(NC)nc(C#Cc4ccc(OC)cc4)nc31)[C@H](O)[C@@H]2O [Compound 11, (1S,2R,3S,4R,5S)-2,3-Dihydroxy-4-(2-((4-methoxyphenyl)ethynyl)-6-(methylamino)-9H-purin-9-yl)-N-methylbicyclo[3.1.0]hexane-1-carboxamide] | 10 | 24 ± 8 |  | 0.63 ± 0.07 |  |  | 0.5 to 1 |  |  |  |  | 
CNC(=O)[C@@]12C[C@@H]1[C@@H](n1cnc3c(NC)nc(C#Cc4cccc(OC)c4)nc31)[C@H](O)[C@@H]2O [Compound 12, (1S,2R,3S,4R,5S)-2,3-Dihydroxy-4-(2-((3-methoxyphenyl)ethynyl)-6-(methylamino)-9H-purin-9-yl)-N-methylbicyclo[3.1.0]hexane-1-carboxamide] | 8 ± 4 | 26 ± 5 |  | 0.91 ± 0.07 |  |  | 0.5 to 2 |  |  |  |  | 
CNC(=O)[C@@]12C[C@@H]1[C@@H](n1cnc3c(NC)nc(C#Cc4ccccc4OC)nc31)[C@H](O)[C@@H]2O [Compound 13, (1S,2R,3S,4R,5S)-2,3-Dihydroxy-4-(2-((2-methoxyphenyl)ethynyl)-6-(methylamino)-9H-purin-9-yl)-N-methylbicyclo[3.1.0]hexane-1-carboxamide] | 12 | 20 ± 7 |  | 0.77 ± 0.17 |  | 64.3 ± 10.7 | 1 | ~70% |  |  |  | 
CNC(=O)[C@@]12C[C@@H]1[C@@H](n1cnc3c(NC)nc(C#Cc4ccsc4)nc31)[C@H](O)[C@@H]2O [Compound 16, (1 S,2R,3S,4R,5S)-2,3-Dihydroxy-N-methyl-4-(6-(methylamino)-2-(thiophen-3-ylethynyl)-9H-purin-9-yl)bicyclo[3.1.0]hexane-1-carboxamide] | 11 | 3 ± 2 |  | 0.52 ± 0.04 |  |  | 0.5 to 1 | diminished |  |  |  | 
CCc1ccc(C#Cc2nc(NC)c3ncn([C@H]4[C@H](O)[C@H](O)[C@]5(C(=O)NC)C[C@H]45)c3n2)o1 [Compound 34, (1S,2R,3S,4R,5S)-4-(2-((5-Ethylfuran-2-yl)ethynyl)-6-(methylamino)-9H-purin-9-yl)-2,3-dihydroxy-N-methylbicyclo[3.1.0]hexane-1-carboxamide] | 18 | 4 ± 4 |  | 1.5 ± 0.28 |  |  | 1 |  |  |  |  | 
CNC(=O)[C@]12CC1[C@@H](n1cnc3c(NC)nc(-n4cc(-c5ccccn5)nn4)nc31)[C@H](O)C2O (stereo partly drawn) [Compound 103] |  |  |  | 1.84 ± 0.38 | 26 ± 2 | 55 ± 6 | 1 |  | 29 ± 7 | 22 ± 7 |  | 
CNC(=O)[C@]12CC1[C@@H](n1cnc3c(NC)nc(-n4cc(-c5cnn(C)c5)nn4)nc31)[C@H](O)C2O (stereo partly drawn) [Compound 106] |  |  |  | 2.16 ± 0.32 | 1 ± 1 | 85 ± 5 | 1 |  | 2 ± 2 | 22 ± 7 |  | 
CNC(=O)[C@]12CC1[C@@H](n1cnc3c(NCCc4ccccc4)nc(N=[N+]=[N-])nc31)[C@H](O)C2O (stereo partly drawn) [Compound 117] |  |  |  | 0.85 ± 0.1 | 71 |  |  |  | 93 |  |  | 
CNC(=O)[C@]12CC1[C@@H](n1cnc3c(NCCc4ccccc4)nc(I)nc31)[C@H](O)C2O (stereo partly drawn) [Compound 119] |  |  |  | 0.91 ± 0.14 |  |  |  |  | 68 |  |  | 
CNC(=O)[C@]12CC1[C@@H](n1cnc3c(NCCc4ccccc4)nc(-n4cc(-c5ccc(Cl)s5)nn4)nc31)[C@H](O)C2O (stereo partly drawn) [Compound 121] |  |  |  | 6.66 ± 2.07 |  | 90 | 0.5 to 3 |  | 58 | 80 |  | 
CCNc1nc(C#Cc2ccc(Cl)s2)nc2c1ncn2[C@H]1C(O)[C@@H](O)[C@]2(C(=O)NC)C[C@H]12 (stereo partly drawn) [Compound 126] |  |  |  |  |  |  |  |  |  |  | 329 | 
CNC(=O)[C@]12CC1[C@@H](n1cnc3cnc(C#Cc4ccccc4)nc31)[C@H](O)C2O (stereo partly drawn) [Compound 402] |  |  |  | 1.51 ± 0.41 |  |  |  |  | 28 ± 4 |  |  | 1200

Second part, led by results:

inhibition at 10 µM (hA1AR) [%] | inhibition at 10 µM (hA2AAR) [%] | Ki (mA3AR) [nM] | Ki (hA3AR) [nM] | hA2AAR % inhibition (hA2AAR) [%] | Compound | Max. effect Emax (% ± SEM) [1] [%] | Time of peak protection [1] [h] | Efficacy in reversing NP in vivo (of full reversal at peak effect) [1] | hA1AR % inhibition (hA1AR) [%] | Effect at 3 h (% ± SEM) [1] [%] | Increase of the level of radioligand ([3H]WIN35428) binding at the human DAT (human DAT) [%] | Ki (hA2AAR) [nM]
25 ± 10 | 27 ± 5 | 65 ± 6 |  |  | CNC(=O)[C@@]12C[C@@H]1[C@@H](n1cnc3c(NC)nc(C#Cc4ncccn4)nc31)[C@H](O)[C@@H]2O [Compound 6, (1S,2R,3S,4R,5S)-2,3-Dihydroxy-N-methyl-4-(6-(methylamino)-2-(pyrimidin-2-ylethynyl)-9H-purin-9-yl)bicyclo[3.1.0]hexane-1-carboxamide] | 92.3 ± 7.7 | 0.5 to 1 | less than full efficacy |  |  |  | 
 |  |  | 3.48 ± 0.97 | 27 ± 3 | CNC(=O)[C@]12CC1[C@@H](n1cnc3c(NC)nc(-n4cc(-c5ncccn5)nn4)nc31)[C@H](O)C2O (stereo partly drawn) [Compound 104] | 89 ± 11 | 1 |  | 14 ± 7 | 39 ± 10 |  | 
 |  |  | 2.21 ± 0.34 | 8 ± 3 | CNC(=O)[C@]12CC1[C@@H](n1cnc3c(NC)nc(-n4cc(-c5cnccn5)nn4)nc31)[C@H](O)C2O (stereo partly drawn) [Compound 105] | 78 ± 0 | 1 |  | 25 ± 10 | 22 ± 7 |  | 
 |  |  | 1.25 ± 0.27 | 40 ± 6 | CNC(=O)[C@]12CC1[C@@H](n1cnc3c(NC)nc(-n4cc(-c5cc6ccccc6o5)nn4)nc31)[C@H](O)C2O (stereo partly drawn) [Compound 108] | 55 ± 6 | 1 |  | 12 ± 7 | 8 ± 8 |  | 
 |  |  | 0.58 ± 0.17 | 7 ± 6 | CNC(=O)[C@]12CC1[C@@H](n1cnc3c(NC)nc(-n4cc(-c5ccc(Br)s5)nn4)nc31)[C@H](O)C2O (stereo partly drawn) [Compound 111] | 69 ± 9 | 1 |  |  | 14 ± 2 |  | 
15 | 2 ± 2 |  | 2.07 ± 0.16 |  | CNC(=O)[C@@]12C[C@@H]1[C@@H](n1cnc3c(NC)nc(C#Cc4ccncc4)nc31)[C@H](O)[C@@H]2O [Compound 300, (1S,2R,3S,4R,5S)-2,3-Dihydroxy-N-methyl-4-(6-(methylamino)-2-(pyridin-4-ylethynyl)-9H-purin-9-yl)bicyclo[3.1.0] hexane-1-carboxamide] |  | 1 | low efficacy |  |  |  | 
